Results on three compounds are retold here after PMC5320532, “Intracellular drug bioavailability: a new predictor of system dependent drug disposition” (Scientific Reports, 2017).

Data set [1] relates to primary human hepatocytes. Put plainly: Metabolic clearance (CLint) in primary human hepatocytes. As to conditions: 1 μM; freshly isolated human hepatocytes in suspension vs after 24 h in monolayer. It counts as in vitro ADME. The protocol: Metabolic clearance (CLint) was determined, as previously described. […] At time points 0, 10, 30, and 60 min, the reaction was stopped by addition of acetonitrile (200 μl) spiked with 50 nM warfarin (internal standard). […] CLint was calculated as the product of the compound disappearance rate and incubation volume, normalized by the cell number.

Data set [2] concerns P-gp. Also on record: method as in earlier work. As to conditions: dot = substrate; collated from literature ref 74, 75, 76; cited from earlier work.
Data set [3] deals with P-gp-transfected MDCK cells (+ elacridar). The following applies: dog, MDCK-MDR1.
In data set [4] the test system is P-gp. Put plainly: in vitro. As to conditions: dog.
Protocol: (§1) To determine intracellular unbound compound concentrations, we measured intracellular fraction of unbound compound (fu,cell) in parallel with total intracellular compound accumulation (Ccell), as described below. Intracellular compound bioavailability (Fic) was calculated as the ratio between intracellular unbound compound concentration (Cu,cell = fu,cell∙Ccell) (the concentration available to bind intracellular targets) and the externally added compound concentration (Cmedium):
where Kp is the ratio Ccell/Cmedium.
(§2) HEK293 cells were grown for two days in 24-well plates, as previously described[25]. MDCK cells were grown for two days in 96-well plates, prior to the intracellular compound accumulation experiments. The growth media were the same as described in the section ‘Cell line maintenance’ without addition of hygromycin B to avoid transporter inhibition.
(§3) Intracellular compound accumulation at steady-state was measured essentially as described before[25]. Briefly, cells were washed twice with HBSS and incubated for 45 min with solutions of single test compounds (in HBSS) on an orbital shaker (300 rpm) at 37 °C. At the end of the experiment, the remaining extracellular compound solutions were collected and cells were washed twice with ice-cold phosphate-buffered saline pH 7.4 (PBS). For hepatocytes in suspension, the cells were separated from the extracellular solutions by centrifugation (100 × g for 5 min). Compounds were extracted from the cells using acetonitrile/water (60:40) spiked with 50 nM warfarin (internal standard). Extracellular medium samples were diluted 10-fold with the same extraction solution. […] Protein concentrations were measured in representative wells of the plates using the BCA Protein Assay Reagent Kit (Thermo Fisher Scientific Inc.).
(§4) The ratio between total compound concentrations in the cells and in the medium (Kp) was calculated according to:
(§5) where Acell is the amount of compound in the cell samples, Vcell is the cell volume (6.5 μL/mg protein[80]), and Cmedium is the compound concentration in the medium sample.
A further data set concerns MDCK II wild-type cells. As to conditions: dog.
Data set [5] relates to mock-transfected HEK293 cells. The following applies: human.
Protocol: as §1
where Kp is the ratio Ccell/Cmedium.
as §2, §3, §4, §5
Data set [6] deals with OATP1B1-transfected HEK293 cells. As to conditions: human.
Protocol: as §1
where Kp is the ratio Ccell/Cmedium.
as §2, §3, §4, §5
Data set [7] has as its system P-gp-KO (CRISPR) MDCK cells. As to conditions: dog.
Protocol: as §1
where Kp is the ratio Ccell/Cmedium.
as §2, §3, §4, §5
A short description of data set [8]: in vitro. The following applies: dog.
For data set [9], the system named is P-gp-transfected MDCK cells. As to conditions: dog.
Protocol: as §1
where Kp is the ratio Ccell/Cmedium.
as §2, §3, §4, §5
The nature of data set [10]: in vitro. The following applies: human.
A short description of data set [11]: Intracellular fraction of unbound compound (fu,cell), dialysis of cell homogenate. As to conditions: human, mock-transfected HEK293 cell homogenate.
The subject of data set [12] is P-gp. Put plainly: Intracellular compound accumulation (Kp) and intracellular bioavailability (Fic). The following applies: dog, MDCK II wild-type cells.
Protocol: as §1
where Kp is the ratio Ccell/Cmedium.
as §2, §3, §4, §5
In data set [13] the test system is P-gp. Described as above. The following applies: dog, P-gp-KO (CRISPR) MDCK cells.
Protocol: as §1
where Kp is the ratio Ccell/Cmedium.
as §2, §3, §4, §5
Data set [14] is described as follows: Intracellular fraction of unbound compound (fu,cell), dialysis of cell homogenate. The following applies: dog, homogenate of MDCK cells transfected with human P-gp.
The subject of data set [15] is P-gp-transfected MDCK cells. Kind of data set: Intracellular compound accumulation (Kp) and intracellular bioavailability (Fic). As to conditions: 0.5 μM; ratio cP-gp-KO/P-gp-transfected.
Protocol: as §1
where Kp is the ratio Ccell/Cmedium.
as §2, §3, §4, §5
Data set [16] deals with P-gp. The data set is described as above. The following applies: dog, P-gp-transfected MDCK cells.
Protocol: as §1
where Kp is the ratio Ccell/Cmedium.
as §2, §3, §4, §5
A short description of data set [17]: Intracellular fraction of unbound compound (fu,cell), dialysis of cell homogenate. The data set is classed as in vitro ADME. As to conditions: human; OATP1B1-transfected HEK293 cell homogenate; geometrical mean ± S.E.M.; read-out: Cell binding (fu,cell). The protocol: For intracellular fraction of unbound compound experiments, cell lines or primary cells were suspended to a concentration of 10 × 10^6 cells/ml in Hank’s balanced salt solution (HBSS). Cell suspensions were homogenized for 10 s with a VCX-500 ultrasonic processor (Sonics & Materials) at 20% intensity and used immediately for binding experiments.
Binding to cell homogenates at steady-state was measured using dialysis as previously described. […] Briefly, the cell homogenate was spiked with six randomly-chosen compounds. Homogenates were dialyzed for 4 h using a Rapid Equilibrium Dialysis device (Thermo Fisher Scientific Inc.). At the end of the incubation, uniform sample matrices were obtained by addition of blank homogenate to samples from the buffer chamber, and by addition blank buffer to samples from the homogenate chamber. Dilutions of samples from the homogenate chambers (10-fold and 100-fold) were prepared. […] Compounds in the supernatant were analyzed by ultra-performance liquid chromatography coupled to tandem mass spectrometry (UPLC-MS/MS), as described below.
The fraction of compound that was not bound to cell homogenate (fu,hom) was calculated according to: […]
where PAbuffer is the peak area of compound in the buffer chamber and PAhom is the peak area of compound in the homogenate chamber, both corrected for the peak area of the internal standard in the respective chamber. For each compound, the dilution of the homogenate sample where PAhom was closest to PAbuffer was used.
The fraction of unbound compound in the cell (fu,cell) was calculated according to: […]

Data set [18] is described as follows: Intracellular compound accumulation (Kp) and intracellular bioavailability (Fic). The following applies: human, mock-transfected HEK293 cells.
Protocol: as §1
where Kp is the ratio Ccell/Cmedium.
as §2, §3, §4, §5
The next data set relates to OATP1B1. The data set is described as above. As to conditions: human, OATP1B1-transfected HEK293 cells.

Entries after “also recorded” stand apart in the source; their conditions may differ. Where two headings read alike, the source gives them in different places.

Protocol for MDCK II wild-type cells: as §1
where Kp is the ratio Ccell/Cmedium.
as §2, §3, §4, §5

Turning to `CC(C)c1nc(CN(C)C(=O)N[C@H](C(=O)N[C@@H](Cc2ccccc2)C[C@H](O)[C@H](Cc2ccccc2)NC(=O)OCc2cncs2)C(C)C)cs1` [Ritonavir], the “metabolic clearance (CLint), suspension vs monolayer hepatocytes” value in [1] is “higher rates; also recorded: reduced”. Further, the P-gp substrate entry with P-gp [2] is “●”.
With `CN(C)C(=O)C(CCN1CCC(O)(c2ccc(Cl)cc2)CC1)(c1ccccc1)c1ccccc1` [Loperamide], the “intracellular bioavailability (Fic)” value in data set [3] came to 0.33±0.33; with MDCK II wild-type cells, 0.50±0.51; in data set [5], 4.3±1.7; in data set [6], 6.8±1.8; in [7], 0.34±0.35; in [9], 0.13±0.13. In the data set with P-gp [4], the Kp worked out at 987 ± 198. The P-gp substrate entry with P-gp [2] is on record as “●”. Also, the fraction unbound in “in vitro [8]” amounted to 0.00051 ± 0.00051; in the data set “in vitro [10]”, 0.0078 ± 0.0008.
For `Cc1c(O)cccc1C(=O)N[C@@H](CSc1ccccc1)[C@H](O)CN1C[C@H]2CCCC[C@H]2C[C@H]1C(=O)NC(C)(C)C` [Nelfinavir], the results for the fraction unbound at 4 h in data set [11], in data set [14] and in data set [17] were 0.00039 ± 8e-05, 0.0001 ± 4e-05 and 0.00044 ± 0.0001, respectively. Also, the Kp at 45 min in the data set with P-gp [12] is 494 ± 74. In addition, in the data set with P-gp [2], the P-gp substrate entry was “●”. Besides, the Kp at 45 min, 0.5 μM came out at 1080 ± 50 with P-gp [13] and 53 ± 19 in the data set with P-gp [16]. For the same compound, the “Fic fold lower in P-gp-transfected than in cP-gp-KO MDCK cells” value in data set [15] stood at 20 fold. Besides, the figures for the Kp at 45 min, 0.1 μM (in [18]; with OATP1B1) were 337 ± 113 and 652 ± 228, respectively.
